Measured values reported in patent US11186817B2, “Chemically defined cell culture media additive” (IUCF-HYU (INDUSTRY-UNIVERSITY COOPERATION FOUNDATION …, priority 2014, dated 2021).

Tested on: CHO DG44 cell line
Test: Cell line growth in HY-CDM media supplemented with DHF
Assay type: cell-based, Chinese hamster
From the text: 1. Cell line and media: CHO DG44 cell line was used as a DHFR-deficient cell line. The cell line was passaged 80 times or more and suspension adapted in HY-CDM (in-house) media as chemically defined media. The suspension-adapted cell line was used to evaluate the influence of tetrahydrofolate (THF) and dihydrofolate (DHF) and the growth characteristics in commercial chemically defined media. The HY-CDM media were composed of chemically defined components only. Each HY-CDM medium further included a growth factor. HY-CDM media used in Examples 1, 3, and 4 were free of an animal derived lipid mixture, and HY-CDM media used in Example 2 were supplemented with cod liver oil.
2. Cell suspension culture: The cell line was inoculated at a density of 4×10^5 cells/ml and cultured in an Erlenmeyer flask with a 30 ml/125 ml working volume on an orbital shaker at 120 rpm under humidified conditions at 37° C. and 5% CO2. Before inoculation, the cells were centrifuged at 1,000 rpm (×162 g) for 5 min, the supernatant was discarded, and the remaining cells were dispersed into single cells in the heated medium. The cells were passaged three times to minimize the influence of the remaining medium under the experimental conditions. The subcultured cells were evaluated.
3. Density of live cells: The density of live cells was analyzed using a hemocytometer (Neubauer improved bright-line, Marienfeld, Germany), an inverted microscope (CK30, Olympus, Japan), and trypan blue dye exclusion.
DHF was used at the same concentrations as THF. The addition of DHF at concentrations of […] improved cell growth by 11% and 24%, respectively (Table 8), which were about 7 times lower than the addition of THF.

Nc1nc(=O)c2c([nH]1)NCC(CNc1ccc(C(=O)N[C@@H](CCC(=O)O)C(=O)O)cc1)=N2 [DHF, dihydrofolate]
Increment compared to control (DHF 1.8 μM): 1.5% | Maximum cell concentration, Average (DHF 1.8 μM): 18.0 ×10^5 cells/ml | Increment compared to control (DHF 3.6 μM): 11.1% | Maximum cell concentration, Average (DHF 3.6 μM): 19.7 ×10^5 cells/ml | Cell growth improvement lower than with the addition of THF (DHF 3.6 μM and 35.9 μM): about 7 times | Increment compared to control (DHF 35.9 μM): 24.1% | Maximum cell concentration, Average (DHF 35.9 μM): 22.0 ×10^5 cells/ml | Improved cell growth (DHF 3.6 M): 11% | Improved cell growth (DHF 35.9 M): 24%
